Source: BigSolDB 2.1

C[n+]1ccn(CCOCCOCCn2cc[n+](C)c2)c1.F[P-](F)(F)(F)(F)F.F[P-](F)(F)(F)(F)F
solubility (mole fraction)
Conditions	283 K	288 K	293 K	298 K	303 K	308 K
in DMF	0.098	0.101	0.105	0.109	0.113	–
in DMSO	–	–	0.106	0.119	0.131	0.14
in ethanol	3.3e-05	4e-05	4.7e-05	5.7e-05	7.2e-05	–
in methanol	0.000198	0.000231	0.000285	0.000369	0.000502	–
in water	0.00015	0.000197	0.000257	0.000334	0.00043	–
